The experiment concerns the target T1, human dopamine D1 receptor (Homo sapiens, UniProt P21728).
T1 construct: expressed in transfected cells; host or cells: CHO cells
In words: Confocal imaging of fluorescent ligand binding to a mixed population cell line expressing the human dopamine D1 receptor. The class given is cell-based. The note with it: ligand 10 nM; human D1-receptor expressing CHO mixed population before antibiotic resistance selection and prior to FACS sorting; confocal microscopy, FIG. 3. The procedure: In FIG. 3 is shown a confocal microscope image of N-{4-aza-3,7-dioxo-7-[4-(8-methoxy-3-methyl-2,3,4,5-tetrahydro-1H-3-benzazepine-1-yl)phenylamino]heptyl}-6-{2-[4-(2-(4,4-difluoro-4,4a-dihydro-5-(thiophen-2-yl)-4-bora-3a,4a-diaza-s-indacene-3-yl)vinyl) ligand (10 nM) binding to human dopamine D1-receptor expressing CHO “cell line” before antibiotic resistance selection and prior to FACS™ sorting. Red images (light grey) show cells binding the fluorescent D1-receptor antagonist and the blue images (dark grey) show the Hoechst staining of the cellular nuclei. It is clear that only about 20% of the cells are expressing the human dopamine D1 receptor.
A mixed population cell line expressing the human dopamine D1 receptor was screened with novel fluorescent dopamine D1 receptor antagonist N-{4-aza-3,7-dioxo-7-[4-(8-methoxy-3-methyl-2,3,4,5-tetrahydro-1H-3-benzazepine-1-yl)phenylamino]heptyl}-6-{2-[4-(2-(4,4-difluoro-4,4a-dihydro-5-(thiophen-2-yl)-4-bora-3a,4a-diaza-s-indacene-3-yl)vinyl), prepared as in Example 1. […] Using FACS cell sorting, these cells are sorted and separated into populations of cells expressing low, medium or high levels of the dopamine D1 receptor. […] A cell sorter such as the Beckman-Coulter Altra can then be used to put individual cells into single wells of a 96 well plate.

T1 sequence (P21728 whole entry): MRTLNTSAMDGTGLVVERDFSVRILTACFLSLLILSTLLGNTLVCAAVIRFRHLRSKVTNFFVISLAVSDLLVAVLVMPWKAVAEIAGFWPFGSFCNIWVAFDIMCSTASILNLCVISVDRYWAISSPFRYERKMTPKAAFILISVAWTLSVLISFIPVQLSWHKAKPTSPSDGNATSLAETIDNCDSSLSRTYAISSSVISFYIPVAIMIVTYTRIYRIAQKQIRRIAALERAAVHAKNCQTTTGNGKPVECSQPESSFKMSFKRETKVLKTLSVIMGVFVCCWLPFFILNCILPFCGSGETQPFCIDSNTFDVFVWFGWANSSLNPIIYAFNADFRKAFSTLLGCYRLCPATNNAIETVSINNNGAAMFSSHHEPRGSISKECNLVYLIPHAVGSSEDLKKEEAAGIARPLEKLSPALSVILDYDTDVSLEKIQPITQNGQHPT

Regarding `CN1CCc2ccc(O)cc2C(c2ccc(NC(=O)CCNC(=O)CCNC(=O)CCCCCNC(=O)COc3ccc(/C=C/C4=[N+]5C(=Cc6ccc(-c7cccs7)n6[B-]5(F)F)C=C4)cc3)cc2)C1` (stereo not shown), the “cells that label with the fluorescent D1-receptor antagonist” value was “about 20%”.
